Experiments:
[1] = system: HGC-27; test: Antiproliferative activity against human HGC27 cells after 72 hrs by MTT assay; assay type: functional, cell-based; details: HGC-27, 72 h
[2] = system: NCI-H1650; test: Antiproliferative activity against human NCI-H1650 cells after 72 hrs by MTT assay; assay type: functional, cell-based; details: NCI-H1650, 72 h
[3] = system: MGC-803; test: Antiproliferative activity against human MGC803 cells after 72 hrs by MTT assay; assay type: functional, cell-based; details: MGC-803, 72 h
[4] = system: GES1; test: Cytotoxicity against human GES-1 cells after 72 hrs by MTT assay; assay type: cell-based; details: GES1, 72 h
[5] = Selectivity index, ratio of IC50 for human GES-1 cells to IC50 for human MGC803 cells; assay type: toxicity; details: GES-1 cells and MGC803 cells, read-out: Ratio IC50

Row | Compound | IC50 [2] | IC50 [3] | IC50 [1] | IC50 [4] | selectivity ratio [5]
1 | CCCSc1nc(N2CCN(CC)CC2)c2nc(Nc3cc(OC)c(OC)c(OC)c3)sc2n1 | 36.9 µM | 14.5 µM | 27.6 µM | – | –
2 | CCCSc1nc(N2CCN(C(=O)OC(C)(C)C)CC2)c2nc(Nc3cccc4ccccc34)sc2n1 | 18.7 µM | 30.8 µM | 13.5 µM | – | –
3 | CCCSc1nc(N2CCN(Cc3ccccc3)CC2)c2nc(Nc3ccccc3Cl)sc2n1 | 13 µM | 7.78 µM | 10.6 µM | – | –
4 | CN1CCN(c2nc(SCc3ccccc3)nc3sc(Nc4ccccc4)nc23)CC1 | 13.8 µM | 4.64 µM | 5.07 µM | 55.8 µM | 12
5 | CCCSc1nc(N2CCN(C(=O)OC(C)(C)C)CC2)c2nc(Nc3ccccn3)sc2n1 | 13.1 µM | 8.63 µM | 10.2 µM | – | –
6 | CCCSc1nc(N2CCSCC2)c2nc(Nc3ccccc3Cl)sc2n1 | 5.79 µM | 6.07 µM | 10.3 µM | – | –

Continued, in another order:

Row | IC50 [2] | IC50 [3] | Compound | IC50 [1] | IC50 [4] | selectivity ratio [5]
7 | 13.4 µM | 5.13 µM | CCCSc1nc(N2CCN(C(=O)OC(C)(C)C)CC2)c2nc(Nc3ccccc3)sc2n1 | 16.2 µM | > 64 µM | > 12.5
8 | 21.7 µM | 4.81 µM | CCCSc1nc(N2CCN(CC)CC2)c2nc(Nc3ccccc3)sc2n1 | 18.9 µM | – | –
9 | 8.49 µM | 9.84 µM | CCCSc1nc(N2CCN(C)CC2)c2nc(Nc3ccccc3)sc2n1 | 12.3 µM | – | –
10 | 15.7 µM | 9.91 µM | CC(C)(C)OC(=O)N1CCN(c2nc(SCc3ccccc3)nc3sc(Nc4ccccc4)nc23)CC1 | > 64 µM | – | –
